# From ChEMBL document CHEMBL1124314, “Development of phosphonate derivatives of gadolinium chelates for NMR imaging of calcified soft tissues” (J Med Chem, 1989)
# Legend:
# [1] = organism: Rattus norvegicus; assay: Uptake of [GD] in bone 1 hr post injection with 0.10 of the compound; assay type: functional, Bone element
# [2] = organism: Rattus norvegicus; assay: Uptake of [GD] in bone 1 hr post injection with 0.20 of the compound; assay type: functional, Bone element
# [3] = Ratio of uptake of [GD] in bone 1 hr post injection with 0.20 to that of muscle; assay type: functional
# [4] = Ratio of uptake of [GD] in bone 1 hr post injection with 0.10 to that of muscle; assay type: functional
# [5] = organism: Rattus norvegicus; assay: Uptake of [GD] in bone 1 hr post injection with 0.02 of the compound; assay type: functional, Bone element
# [6] = Uptake of [GD] in bone 1 hr post injection with NCA GD dose to that of muscle; assay type: functional, Muscle tissue
# [7] = Ratio of uptake of [GD] in bone 1 hr post injection with 0.05 to that of muscle; assay type: functional
# [8] = organism: Rattus norvegicus; assay: Uptake of [GD] in bone 1 hr post injection with 0.005 of the compound; assay type: functional, Bone element
# [9] = organism: Rattus norvegicus; assay: Uptake of [GD] in bone 1 hr post injection with NCA GD dose; assay type: functional, Bone element
# [10] = organism: Rattus norvegicus; assay: Uptake of [GD] in bone 1 hr post injection with 0.05 of the compound; assay type: functional, Bone element
# [11] = Ratio of uptake of [GD] in bone 1 hr post injection with 0.005 to that of muscle; assay type: functional
# [12] = Ratio of uptake of [GD] in bone 1 hr post injection with 0.20 to that of blood; assay type: functional
# [13] = Ratio of uptake of [GD] in bone 1 hr post injection with 0.05 to that of blood; assay type: functional
# [14] = Ratio of uptake of [GD] in bone 1 hr post injection with NCA GD dose to that of blood; assay type: functional
# [15] = Ratio of uptake of [GD] in bone 1 hr post injection with 0.02 to that of muscle; assay type: functional
# [16] = Ratio of uptake of [GD] in bone 1 hr post injection with 0.005 to that of blood; assay type: functional
# [17] = Ratio of uptake of [GD] in bone 1 hr post injection with 0.10 to that of blood; assay type: functional
# [18] = Ratio of uptake of [GD] in bone 1 hr post injection with 0.02 to that of blood; assay type: functional
# [19] = Ratio of uptake of [GD] in bone 1 hr post injection with 0.01 (N) to that of muscle
# [20] = Ratio of uptake of [GD] in bone 1 hr post injection with 0.01 (N) to that of blood
# [21] = organism: Rattus norvegicus; assay: Biodistribution in rat muscle in the presence of NCAGd/0.01 M lig; assay type: ADME, organism-based, Muscle tissue; details: in vivo
# [22] = organism: Rattus norvegicus; assay: Biodistribution in rat heart in the presence of NCAGd/0.01 M lig; assay type: ADME, organism-based; details: in vivo
# [23] = Ratio of uptake of [GD] in bone 1 hr post injection with NCA GD dose to that of muscle; assay type: functional
# [24] = organism: Rattus norvegicus; assay: Biodistribution in rat liver by in the presence of NCAGd/0.01 M lig; assay type: ADME, organism-based; details: in vivo
# [25] = Ratio of uptake of [GD] in bone 1 hr post injection with 0.01 to that of muscle; assay type: functional
# [26] = organism: Rattus norvegicus; assay: Biodistribution in rat spleen in the presence of NCAGd/0.01 M lig; assay type: ADME, organism-based; details: in vivo
# [27] = organism: Rattus norvegicus; assay: Biodistribution in rat kidney in the presence of NCAGd/0.01 M lig; assay type: ADME, organism-based; details: in vivo
# [28] = organism: Rattus norvegicus; assay: Biodistribution in rat blood in the presence of NCAGd/0.01 M lig; assay type: ADME, organism-based; details: in vivo
# [29] = organism: Rattus norvegicus; assay: Uptake of [GD] in bone 1 h post injection with 0.01 of the compound; assay type: functional, Bone element
# [30] = organism: Rattus norvegicus; assay: Biodistribution in rat bone in the presence of NCAGd/0.01 M lig; assay type: ADME, organism-based, Bone element; details: in vivo
# [31] = organism: Rattus norvegicus; assay: Uptake of [GD] in bone 1 hr post injection with 0.01 (N) of the compound
# [32] = Ratio of uptake of [GD] in bone 1 hr post injection with 0.01(A) to that of blood; assay type: functional
# [33] = Ratio of uptake of [GD] in bone 1 hr post injection with 0.01(A) to that of muscle; assay type: functional
# [34] = Ratio of uptake of [GD] in bone 1 hr post injection with 0.01(N) to that of muscle; assay type: functional
# [35] = organism: Rattus norvegicus; assay: Uptake of [GD] in bone 1 hr post injection with 0.01(N) of the compound; assay type: functional, Bone element
# [36] = Ratio of uptake of [GD] in bone 1 h post injection with 0.01(N) to that of blood; assay type: functional
# [37] = organism: Rattus norvegicus; assay: Uptake of [GD] in bone 1 hr post injection with 0.01(A) of the compound; assay type: functional, Bone element
# [38] = system: Rattus norvegicus; assay: Biodistribution in rat l. intestine in the presence of 50 Gd/kg at 2 hr; assay type: ADME, organism-based; details: in vivo
# [39] = system: Rattus norvegicus; assay: Biodistribution in rat spleen in the presence of 50 Gd/kg at 2 hr; assay type: ADME, organism-based; details: in vivo
# [40] = system: Rattus norvegicus; assay: Biodistribution in rat spleen in the presence of 50 Gd/kg at 6 hr; assay type: ADME, organism-based; details: in vivo
# [41] = organism: Rattus norvegicus; assay: Biodistribution in rat kidney in the presence of NCA Gd/0.01 M lip; assay type: ADME, organism-based; details: in vivo
# [42] = system: Rattus norvegicus; assay: Biodistribution in rat blood in the presence of 50 Gd/kg at 15 min; assay type: ADME, organism-based; details: in vivo, 0.25 h
# [43] = organism: Rattus norvegicus; assay: Biodistribution in rat blood in the presence of 0.05 M Gd/0.15 M lig; assay type: ADME, organism-based; details: in vivo
# [44] = organism: Rattus norvegicus; assay: Biodistribution in rat spleen in the presence of NCA Gd/0.01 M lip; assay type: ADME, organism-based; details: in vivo
# [45] = system: Rattus norvegicus; assay: Biodistribution in rat liver in the presence of 50 Gd/kg at 2 hr; assay type: ADME, organism-based; details: in vivo
# [46] = system: Rattus norvegicus; assay: Biodistribution in rat liver by in the presence 50 Gd/kg at 15 min; assay type: ADME, organism-based; details: in vivo, 0.25 h
# [47] = organism: Rattus norvegicus; assay: Biodistribution in rat heart in the presence of 0.05 M Gd/0.15 M lig; assay type: ADME, organism-based; details: in vivo
# [48] = system: Rattus norvegicus; assay: Biodistribution in rat liver in the presence of 50 Gd/kg at 6 hr; assay type: ADME, organism-based; details: in vivo
# [49] = organism: Rattus norvegicus; assay: Biodistribution in rat l. intestine in the presence of 0.01 M carrier at 1 hr; assay type: ADME, organism-based; details: in vivo
# [50] = system: Rattus norvegicus; assay: Biodistribution in rat stomach in the presence of 50 Gd/kg at 15 min; assay type: ADME, organism-based; details: in vivo, 0.25 h
# [51] = organism: Rattus norvegicus; assay: Biodistribution in rat muscle in the presence of 0.05 M Gd/0.15 M lig; assay type: ADME, organism-based, Muscle tissue; details: in vivo
# [52] = system: Rattus norvegicus; assay: Biodistribution in rat s. intestine in the presence of 50 Gd/kg at 2 hr; assay type: ADME, organism-based; details: in vivo
# [53] = system: Rattus norvegicus; assay: Biodistribution in rat blood in the presence of 50 Gd/kg at 2 hr; assay type: ADME, organism-based; details: in vivo
# [54] = organism: Rattus norvegicus; assay: Biodistribution in rat blood in the presence of NCA Gd/0.01 M lip; assay type: ADME, organism-based; details: in vivo
# [55] = organism: Rattus norvegicus; assay: Biodistribution in rat liver in the presence of NCA Gd/0.01 M lip; assay type: ADME, organism-based; details: in vivo
# [56] = organism: Rattus norvegicus; assay: Biodistribution in rat bone in the presence of NCA Gd/0.01 M lip; assay type: ADME, organism-based, Bone element; details: in vivo
# [57] = system: Rattus norvegicus; assay: Biodistribution in rat s. intestine in the presence of 50 Gd/kg at 6 hr; assay type: ADME, organism-based; details: in vivo
# [58] = organism: Rattus norvegicus; assay: Biodistribution in rat s. intestine in the presence of NCA (No carrier added); assay type: ADME, organism-based; details: in vivo
# [59] = system: Rattus norvegicus; assay: Biodistribution in rat stomach in the presence of 50 Gd/kg at 2 hr; assay type: ADME, organism-based; details: in vivo
# [60] = organism: Rattus norvegicus; assay: Biodistribution in rat liver by in the presence of 0.05 M Gd/0.15 M lig; assay type: ADME, organism-based; details: in vivo
# [61] = organism: Rattus norvegicus; assay: Biodistribution in rat kidney in the presence of 0.05 M Gd/0.15 M lig; assay type: ADME, organism-based; details: in vivo
# [62] = system: Rattus norvegicus; assay: Biodistribution in rat blood in the presence of 50 Gd/kg at 6 hr; assay type: ADME, organism-based; details: in vivo
# [63] = organism: Rattus norvegicus; assay: Biodistribution in rat heart in the presence of NCA Gd/0.01 M lip; assay type: ADME, organism-based; details: in vivo
# [64] = system: Rattus norvegicus; assay: Biodistribution in rat l. intestine in the presence of 50 Gd/kg at 6 hr; assay type: ADME, organism-based; details: in vivo
# [65] = organism: Rattus norvegicus; assay: Biodistribution in rat muscle in the presence of NCA Gd/0.01 M lip; assay type: ADME, organism-based, Muscle tissue; details: in vivo
# [66] = system: Rattus norvegicus; assay: Biodistribution in rat spleen in the presence of 50 Gd/kg at 15 min; assay type: ADME, organism-based; details: in vivo, 0.25 h
# [67] = organism: Rattus norvegicus; assay: Biodistribution in rat bone in the presence of 0.05 M Gd/0.15 M lig; assay type: ADME, organism-based, Bone element; details: in vivo
smiles,measurement,setting,value
O=C(O)CN(CCN(CC(=O)O)CC(=O)O)CCN(CC(=O)O)CC(=O)NCCC(O)P(=O)(O)OP(=O)(O)O (stereo unspecified),ID,[1],16.1%
same,ID,[2],13.5%
same,Ratio,[3],8.08
same,Ratio,[4],12.5
same,ID,[5],28.9%
same,Ratio,[6],70.6
same,Ratio,[7],19.6
same,ID,[8],44.4%
same,ID,[9],57%
same,ID,[10],21.2%
same,Ratio,[11],52.7
same,Ratio,[12],13.9
same,Ratio,[13],29.8
same,Ratio,[14],108
same,Ratio,[15],20.1
same,Ratio,[16],110.4
same,Ratio,[17],25.7
same,Ratio,[18],34.9
CC(C)(CO)NCCNC(C)(C)CO,Ratio,[19],1.47%
same,Ratio,[20],0.135%
same,ID/organ,[21],4.09%
same,ID/organ,[22],0.28%
same,Ratio,[23],6.78%
same,ID/organ,[24],41%
same,ID,[9],27.7%
same,Ratio,[25],1.61%
same,ID/organ,[26],0.19%
same,ID/organ,[27],2.85%
same,ID/organ,[28],7.25%
same,ID,[29],7.23%
same,ID/organ,[30],27.7%
same,ID,[31],2.56%
OC(CNCCNCC(O)c1ccccc1)c1ccccc1 (stereo unspecified),Ratio,[32],0.139%
same,ID/organ,[21],6.09%
same,ID/organ,[22],0.34%
same,Ratio,[33],1.6%
same,ID/organ,[24],20.9%
same,ID,[9],56.8%
same,ID/organ,[26],0.135%
same,Ratio,[34],2.14%
same,ID/organ,[27],3.57%
same,ID/organ,[28],2.35%
same,ID,[35],6.36%
same,ID/organ,[30],56.8%
same,Ratio,[36],0.188
same,ID,[37],6.37%
CC(C(=O)O)C(C(=O)O)(P(=O)(O)O)P(=O)(O)O (stereo unspecified),ID/organ,[38],0.334%
same,ID/organ,[39],12.5%
same,ID/organ,[40],8.12%
same,ID/organ,[41],0.339%
same,ID/organ,[42],23.4%
same,ID/organ,[43],0.319%
same,ID/organ,[44],2.67%
same,ID/organ,[45],74.3%
same,ID/organ,[46],34.2%
same,ID/organ,[47],0.059%
same,ID/organ,[48],80.2%
same,ID/organ,[49],0.138%
same,ID/organ,[50],0.221%
same,ID/organ,[51],0.124%
same,ID/organ,[52],1.03%
same,ID/organ,[53],0.26%
same,ID/organ,[54],2.62%
same,ID/organ,[55],67.3%
same,ID/organ,[56],6.91%
same,ID/organ,[57],0.675%
same,ID/organ,[58],0.86%
same,ID/organ,[59],0.178%
same,ID/organ,[60],73%
same,ID/organ,[61],0.447%
same,ID/organ,[62],0.217%
same,ID/organ,[63],0.099%
same,ID/organ,[64],0.293%
same,ID/organ,[65],2.38%
same,ID/organ,[66],11.2%
same,ID/organ,[67],1.18%
